Experimental findings from patent publication US9714247B2, “Multiple kinase pathway inhibitors” (Mannkind Corporation, priority 2012, dated 2017) are described below.

In one test the test system is DoHH2. Nature of the test: CellTiter-Glo proliferation/viability assay. The test is classed as cell-based, human. The settings on record: Homo sapiens, read-out: DoHH2 EC50.
In test [1] the target is T1, Lyn (Homo sapiens (Human), UniProt P07948). The test is described as follows: biochemical.
The next test deals with Src (Homo sapiens (Human), UniProt P12931). Particulars: read-out: Src IC50.
Sequence of Src (P12931 whole entry, looked up): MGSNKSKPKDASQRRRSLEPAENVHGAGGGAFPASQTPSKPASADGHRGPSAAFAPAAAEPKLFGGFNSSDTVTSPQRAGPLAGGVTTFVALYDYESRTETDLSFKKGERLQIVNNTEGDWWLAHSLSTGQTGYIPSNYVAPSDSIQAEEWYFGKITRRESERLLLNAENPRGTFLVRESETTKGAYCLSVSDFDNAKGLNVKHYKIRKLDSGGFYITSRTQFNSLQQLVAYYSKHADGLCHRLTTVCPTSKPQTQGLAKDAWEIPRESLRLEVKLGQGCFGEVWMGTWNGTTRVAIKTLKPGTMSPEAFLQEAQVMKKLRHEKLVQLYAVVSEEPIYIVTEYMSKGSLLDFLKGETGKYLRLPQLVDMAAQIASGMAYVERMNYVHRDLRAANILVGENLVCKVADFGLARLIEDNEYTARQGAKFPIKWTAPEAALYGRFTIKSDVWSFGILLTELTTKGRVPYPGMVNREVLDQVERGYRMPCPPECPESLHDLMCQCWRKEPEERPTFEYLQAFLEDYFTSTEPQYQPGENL
The next test addresses BTK (Homo sapiens (Human), UniProt Q06187).
The next test relates to Ramos. Nature of the test: CellTiter-Glo proliferation/viability assay. In kind it is cell-based, human. (In general: In ATP-based viability assays light output follows the ATP content of the culture.)
Test [2] concerns the target T1, Lyn. Particulars: read-out: Lyn IC50.
Where [3] appears, read: Homo sapiens, Ramos; 48 hrs; read-out: Ramos EC50.
[4] abbreviates: Homo sapiens, Ramos, 48 h; read-out: Ramos EC50.

For orientation: EC50 means the concentration that produces a half-maximal response. What is called IC50 is the midpoint of a concentration-inhibition curve.

Like-named read-outs stand apart in the source and are kept apart here.

T1 sequence (P07948 whole entry): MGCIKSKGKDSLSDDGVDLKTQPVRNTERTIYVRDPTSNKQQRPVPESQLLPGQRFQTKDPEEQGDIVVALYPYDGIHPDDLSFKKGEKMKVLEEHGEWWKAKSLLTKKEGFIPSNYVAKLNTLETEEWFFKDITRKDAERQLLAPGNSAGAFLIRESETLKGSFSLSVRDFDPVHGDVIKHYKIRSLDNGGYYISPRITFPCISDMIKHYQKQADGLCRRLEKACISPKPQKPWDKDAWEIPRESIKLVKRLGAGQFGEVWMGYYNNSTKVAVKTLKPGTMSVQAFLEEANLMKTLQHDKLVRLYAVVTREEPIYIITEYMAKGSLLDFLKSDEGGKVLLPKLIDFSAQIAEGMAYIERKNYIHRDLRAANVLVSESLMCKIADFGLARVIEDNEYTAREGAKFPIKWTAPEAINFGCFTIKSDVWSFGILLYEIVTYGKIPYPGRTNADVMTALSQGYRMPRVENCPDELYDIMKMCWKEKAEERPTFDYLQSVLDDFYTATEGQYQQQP
Sequence of BTK (Q06187 whole entry): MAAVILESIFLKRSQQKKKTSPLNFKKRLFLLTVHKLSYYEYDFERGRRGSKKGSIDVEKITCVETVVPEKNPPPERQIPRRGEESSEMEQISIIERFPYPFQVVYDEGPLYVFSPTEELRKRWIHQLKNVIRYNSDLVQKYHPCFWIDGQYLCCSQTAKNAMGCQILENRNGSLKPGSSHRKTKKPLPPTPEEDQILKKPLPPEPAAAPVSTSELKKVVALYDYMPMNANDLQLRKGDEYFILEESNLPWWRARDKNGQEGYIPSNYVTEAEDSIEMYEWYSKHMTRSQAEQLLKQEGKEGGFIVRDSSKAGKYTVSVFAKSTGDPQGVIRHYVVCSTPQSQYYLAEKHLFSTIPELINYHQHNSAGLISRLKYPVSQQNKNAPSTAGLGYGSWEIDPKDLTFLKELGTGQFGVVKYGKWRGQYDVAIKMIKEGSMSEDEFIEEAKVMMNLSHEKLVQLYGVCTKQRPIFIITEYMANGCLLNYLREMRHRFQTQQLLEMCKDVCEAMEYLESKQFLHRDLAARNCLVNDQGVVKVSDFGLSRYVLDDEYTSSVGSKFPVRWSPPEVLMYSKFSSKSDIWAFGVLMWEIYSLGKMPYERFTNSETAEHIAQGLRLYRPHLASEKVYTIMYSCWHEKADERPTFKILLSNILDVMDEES

On to `CCN(CC)CCOc1ccc(Nc2cc3c(cn2)cc(-c2ccccc2)c(=O)n3C)nc1` [Compound 15, 7-[5-(2-Diethylamino-ethoxy)-pyridin-2-ylamino]-1-methyl-3-phenyl-1H-[1,6]naphthyridin-2-one], for which the concentration giving a half-maximal response (EC50) is less than 1000 nM with DoHH2 (DOHH-2, 48 hrs) and 1000 to 10000 nM with Ramos (setting [3]). The figures for the half-maximal inhibitory concentration (IC50) against Lyn [1], on Src and on BTK (read-out: BTK IC50) were 100 to 1000 nM, less than 100 nM and less than 100 nM, respectively.
For the compound `CCn1c(=O)c(C2CCC2)cc2cnc(Nc3ccc(C)cn3)cc21` [Compound 37, 3-Cyclobutyl-1-ethyl-7-(5-methyl-pyridin-2-ylamino)-1H-[1,6]naphthyridin-2-one], the EC50 is greater than 10000 nM in the test with DoHH2 (DOHH-2, 48 hrs) and greater than 10000 nM with Ramos (setting [3]). Also, the IC50 against Lyn [1] was 1000 to 5000 nM; on Src, greater than 5000 nM; against BTK, 100 to 1000 nM.
Turning to `CCN(CC)CCOc1ccc(Nc2cc3c(cn2)cc(-c2ccccc2)c(=O)n3C2CCCCC2)nc1` [Compound 74, 1-cyclohexyl-7-(5-(2-(diethylamino)ethoxy)pyridin-2-ylamino)-3-phenyl-1,6-naphthyridin-2(1H)-one], the EC50 in the test on DoHH2 (DOHH-2, 48 hrs) fell in the range of 1000 to 10000 nM; in the test with Ramos (setting [3]), 1000 to 10000 nM. Also, the IC50 on Lyn [1] was 1000 to 5000 nM; at Src, less than 100 nM.
Take `CCn1c(=O)c(-c2c(Cl)cccc2Cl)cc2cnc(Nc3ccc(F)cn3)cc21` [Compound 76, 3-(2,6-dichlorophenyl)-1-ethyl-7-((5-fluoropyridin-2-yl)amino)-1,6-naphthyridin-2(1H)-one]: the IC50 at Lyn [2] was less than 100 nM; at Src it was less than 100 nM; on BTK, 100 to 1000 nM. Besides, the EC50 was less than 1000 nM in the test with DoHH2 (DOHH-2, 48 hrs) and greater than 10000 nM in the test on Ramos (setting [4]).
In the case of `CCN(CC)CCOc1ccc(Nc2cc3c(cn2)cc(-c2ccccc2)c(=O)n3-c2ccncc2)nc1` [Compound 82, 7-[5-(2-Diethylamino-ethoxy)-pyridin-2-ylamino]-3-phenyl-1-pyridin-4-yl-1H-[1,6]naphthyridin-2-one], the half-inhibitory concentration (IC50) on Lyn [2] was less than 100 nM; on Src it was less than 100 nM; against BTK, 100 to 1000 nM. Further, the concentration giving a half-maximal response (EC50) in the test with DoHH2 (DOHH-2, 48 hrs) is less than 1000 nM; with Ramos (setting [3]) it was greater than 10000 nM.
Regarding `CCn1c(=O)ccc2cnc(Nc3ccc(C)cn3)cc21` [Compound 87], the IC50 on Lyn [2] is greater than 5000 nM; at Src it was greater than 5000 nM; against BTK it was 1000 to 5000 nM. Moreover, the EC50 with DoHH2 (DOHH-2, 48 hrs) was 1000 to 10000 nM; in the test with Ramos (setting [4]) it was 1000 to 10000 nM.
In the case of `CCn1c(=O)c(Br)cc2cnc(Nc3ccc(C)cn3)cc21` [Compound 88], the IC50 on Lyn [2] was greater than 5000 nM; at Src, less than 100 nM; on BTK, 100 to 1000 nM. Further, the 50% effective concentration (EC50) in the test on DoHH2 (DOHH-2, 48 hrs) was less than 1000 nM; in the test on Ramos (setting [4]), less than 1000 nM.
On to `CCN(CC)CCOc1ccc(Nc2cc3c(cn2)cc(-c2c(F)ccc(Cl)c2F)c(=O)n3CC)nc1` [Compound 97, 3-(3-chloro-2,6-difluorophenyl)-7-((5-(2-(diethylamino)ethoxy)pyridin-2-yl)amino)-1-ethyl-1,6-naphthyridin-2(1H)-one], for which the concentration for half-maximal inhibition (IC50) on Lyn [2] was less than 100 nM; at Src, less than 100 nM; against BTK it was 100 to 1000 nM. In addition, the EC50 in the test on DoHH2 (DOHH-2, 48 hrs) was less than 1000 nM; with Ramos (setting [4]) it was 1000 to 10000 nM.
As for `CCN(CC)CCOc1ccc(Nc2cc3c(cn2)cc(-c2c(Cl)cccc2OC)c(=O)n3CC)nc1` [Compound 108, 3-(2-chloro-6-methoxyphenyl)-7-((5-(2-(diethylamino)ethoxy)pyridin-2-yl)amino)-1-ethyl-1,6-naphthyridin-2(1H)-one], the half-inhibitory concentration (IC50) on Lyn [2], on Src and at BTK (read-out: BTK IC50) was less than 100 nM in each case. For the same compound, the half-maximal effective concentration (EC50) is less than 1000 nM with DoHH2 (DOHH-2, 48 hrs) and greater than 10000 nM in the test with Ramos (setting [3]).
For the compound `CCn1c(=O)c(-c2ccccc2)cc2cnc(Nc3cccnn3)cc21` [Compound 112, 1-ethyl-3-phenyl-7-(pyridazin-3-ylamino)-1,6-naphthyridin-2(1H)-one], the figures for the IC50 on Lyn [2], on Src and against BTK were greater than 5000 nM, greater than 5000 nM and 1000 to 5000 nM, respectively. The EC50 was greater than 10000 nM with DoHH2 (DOHH-2, 48 hrs) and greater than 10000 nM in the test with Ramos (setting [4]).
As for `CCn1c(=O)c(-c2cc(SC)ccc2F)cc2cnc(Nc3ccc(N(C)C4CCN(C)CC4)cn3)cc21` [Compound 116, 1-ethyl-3-(2-fluoro-5-(methylthio)phenyl)-7-((5-(methyl(1-methylpiperidin-4-yl)amino)pyridin-2-yl)amino)-1,6-naphthyridin-2(1H)-one], the concentration giving a half-maximal response (EC50) with DoHH2 (DOHH-2, 48 h) was less than 1000 nM; in the test on Ramos (Homo sapiens, Ramos, 48 h, read-out: Ramos EC50) it was 1000 to 10000 nM. In addition, the IC50 at Lyn [1] was less than 100 nM.
With `CCn1c(=O)c(-c2c(F)cccc2OC)cc2cnc(Nc3ccc(N(C)C4CCN(C)CC4)cn3)cc21` [Compound 118, 1-ethyl-3-(2-fluoro-6-methoxyphenyl)-7-((5-(methyl(1-methylpiperidin-4-yl)amino)pyridin-2-yl)amino)-1,6-naphthyridin-2(1H)-one], the IC50 on Lyn [2], at Src and at BTK (read-out: BTK IC50) was less than 100 nM throughout. The concentration for a half-maximal effect (EC50) in the test with DoHH2 (DOHH-2, 48 hrs) was less than 1000 nM; in the test with Ramos (setting [4]) it was 1000 to 10000 nM.
For the compound `CCn1c(=O)c(-c2c(Cl)cccc2Cl)cc2cnc(Nc3ccc(N(C)C4CCN(C)CC4)cn3)cc21` [Compound 121, 3-(2,6-dichlorophenyl)-1-ethyl-7-((5-(methyl(1-methylpiperidin-4-yl)amino)pyridin-2-yl)amino)-1,6-naphthyridin-2(1H)-one], the IC50 at Lyn [2], at Src and on BTK (read-out: BTK IC50) was less than 100 nM each time. The EC50 is less than 1000 nM in the test on DoHH2 (DOHH-2, 48 hrs) and 1000 to 10000 nM in the test with Ramos (setting [4]).
As for `CCn1c(=O)c(-c2c(O)cccc2Cl)cc2cnc(Nc3ccc(N(C)C4CCN(C)CC4)cn3)cc21` [Compound 122, 3-(2-chloro-6-hydroxyphenyl)-1-ethyl-7-((5-(methyl(1-methylpiperidin-4-yl)amino)pyridin-2-yl)amino)-1,6-naphthyridin-2(1H)-one], the IC50 on Lyn [2], on Src and on BTK (read-out: BTK IC50) was less than 100 nM throughout. In addition, the EC50 with DoHH2 (DOHH-2, 48 hrs) was less than 1000 nM; with Ramos (setting [3]), 1000 to 10000 nM.
`CCn1c(=O)c(-c2c(F)ccc(F)c2O)cc2cnc(Nc3ccc(N(C)C4CCN(C)CC4)cn3)cc21` [Compound 123, 3-(3,6-difluoro-2-hydroxyphenyl)-1-ethyl-7-((5-(methyl(1-methylpiperidin-4-yl)amino)pyridin-2-yl)amino)-1,6-naphthyridin-2(1H)-one]: the IC50 on Lyn [2], on Src and at BTK (read-out: BTK IC50) was less than 100 nM throughout. Also, the 50% effective concentration (EC50) with DoHH2 (DOHH-2, 48 hrs) is less than 1000 nM; in the test with Ramos (setting [3]) it was 1000 to 10000 nM.
For the compound `CCn1c(=O)c(-c2c(C)cc(F)cc2C)cc2cnc(Nc3ccc(N(C)C4CCN(C)CC4)cn3)cc21` [Compound 124, 1-ethyl-3-(4-fluoro-2,6-dimethylphenyl)-7-((5-(methyl(1-methylpiperidin-4-yl)amino)pyridin-2-yl)amino)-1,6-naphthyridin-2(1H)-one], the 50% inhibitory concentration (IC50) on Lyn [2], at Src and at BTK (read-out: BTK IC50) was less than 100 nM throughout. For the same compound, the concentration giving a half-maximal response (EC50) with DoHH2 (DOHH-2, 48 hrs) is less than 1000 nM; with Ramos (setting [3]), greater than 10000 nM.
As for `CN(C)CCCn1c(=O)c(-c2c(F)cccc2F)cc2cnc(Nc3ccc(F)cn3)cc21` [Compound 130, 3-(2,6-difluorophenyl)-1-(3-(dimethylamino)propyl)-7-((5-fluoropyridin-2-yl)amino)-1,6-naphthyridin-2(1H)-one], the IC50 at Lyn [2], on Src and on BTK (read-out: BTK IC50) was less than 100 nM in each case. The EC50 with DoHH2 (DOHH-2, 48 hrs) is less than 1000 nM; with Ramos (setting [3]), 1000 to 10000 nM.
As to `O=c1c(-c2c(F)cccc2F)cc2cnc(Nc3ccc(F)cn3)cc2n1CCCN1CCOCC1` [Compound 131, 3-(2,6-difluorophenyl)-7-((5-fluoropyridin-2-yl)amino)-1-(3-morpholinopropyl)-1,6-naphthyridin-2(1H)-one], the IC50 at Lyn [2] was less than 100 nM; at Src, less than 100 nM; against BTK, 100 to 1000 nM. In addition, the EC50 was less than 1000 nM with DoHH2 (DOHH-2, 48 hrs) and greater than 10000 nM in the test with Ramos (setting [3]).
`CN1CCN(CCCn2c(=O)c(-c3c(F)cccc3F)cc3cnc(Nc4ccc(F)cn4)cc32)CC1` [Compound 132, 3-(2,6-difluorophenyl)-7-((5-fluoropyridin-2-yl)amino)-1-(3-(4-methylpiperazin-1-yl)propyl)-1,6-naphthyridin-2(1H)-one]: the 50% inhibitory concentration (IC50) on Lyn [2], at Src and on BTK (read-out: BTK IC50) was less than 100 nM each time. In addition, the EC50 with DoHH2 (DOHH-2, 48 hrs) is less than 1000 nM; in the test on Ramos (setting [3]) it was greater than 10000 nM.
Turning to `CN1CCC(N(C)c2ccc(Nc3cc4c(cn3)cc(-c3c(F)cccc3F)c(=O)n4C3CCCC3)nc2)CC1` [Compound 139, 1-cyclopentyl-3-(2,6-difluorophenyl)-7-((5-(methyl(1-methylpiperidin-4-yl)amino)pyridin-2-yl)amino)-1,6-naphthyridin-2(1H)-one], the IC50 on Lyn [2], on Src and at BTK (read-out: BTK IC50) was less than 100 nM each time. Further, the half-maximal effective concentration (EC50) in the test with DoHH2 (DOHH-2, 48 hrs) is less than 1000 nM; in the test with Ramos (setting [4]) it was 1000 to 10000 nM.
In the case of `CN1CCC(N(C)c2ccc(Nc3cc4[nH]c(=O)c(-c5c(F)cccc5F)cc4cn3)nc2)CC1` [Compound 140, 3-(2,6-difluorophenyl)-7-((5-(methyl(1-methylpiperidin-4-yl)amino)pyridin-2-yl)amino)-1,6-naphthyridin-2(1H)-one], the IC50 on Lyn [2], on Src and at BTK (read-out: BTK IC50) was less than 100 nM in each case. Also, the concentration for a half-maximal effect (EC50) is less than 1000 nM in the test on DoHH2 (DOHH-2, 48 hrs) and 1000 to 10000 nM in the test on Ramos (setting [3]).
